Nine compounds from patent US7244730B2, “2-iminopyrrolidine derivatives” (Eisai Co., Ltd, priority 2001, dated 2007) can be followed below.

Assay [1] concerns Vascular smooth muscle cells (rSMC). The assay can be described thus: Rat smooth muscle cell proliferation assay. Particulars: 48 h; male SD rat aorta rSMC; thrombin 0.1 unit/ml; 2 days; MTT, OD 590 nm; read-out: Rat SMC IC50. The format is cell-based. On the procedure: [Rat Smooth Muscle Cell Proliferation Assay]
Vascular smooth muscle cells (rSMC) were isolated from male SD rat aorta by the explant method. DMEM medium (Sigma) containing 10% fetal bovine serum (GibcoBRL), streptomycin and penicillin was used as the proliferation medium, and subculture was carried out at 37° C. in the presence of 5% CO2. Culture was initiated after adding 100 μl of rSMC suspension in proliferation medium at a concentration of 1×10^4 cells/ml, to a 96-well plate. After 3 days, cells were rinsed twice with 100 μl of DMEM medium, the medium was exchanged with 100 μl of DMEM medium containing 0.1% albumin (starvation medium), and serum starvation was initiated. The medium was exchanged two days after the serum starvation, 80 μl of starvation medium and 10 μl of the test compound diluted to different concentrations with the starvation medium were added, and then 10 μl of thrombin dissolved in the starvation medium (final concentration: 0.1 unit/ml) was added prior to further incubation for 2 days.
Upon adding 20 μl of MTT (3-[4,5-dimethylthiazol-2-yl]-2,5-diphenyltetrazolium bromide) dissolved in DPBS to 7.5 mg/ml, incubation was continued for 4 hours. The medium was removed by suction, 50 μl of a 10% SDS/0.029% ammonia solution was added, and the mixture was allowed to stand for 2 hours in a CO2 incubator for complete lysis of the cells. As an index of cell proliferation, the OD 590 nm was measured using a plate reader (EL340, BIO-TEK Instruments Inc.), and the control OD value (OD value in the absence of the test compound) minus the OD value in the presence of the test compound was divided by the control OD value minus the blank OD value (OD value without thrombin stimulation) to determine the inhibition ratio, from which the IC50 value was calculated.

For the next assay, the target named is T1, thrombin receptor (Homo sapiens, UniProt P25116).
T1 construct: centrifuged at 40,000 g for 60 minutes to yield platelet membrane; from tissue; host or cells: platelet membrane prepared from donor blood (platelet rich plasma)
T1 sequence (P25116 22-425): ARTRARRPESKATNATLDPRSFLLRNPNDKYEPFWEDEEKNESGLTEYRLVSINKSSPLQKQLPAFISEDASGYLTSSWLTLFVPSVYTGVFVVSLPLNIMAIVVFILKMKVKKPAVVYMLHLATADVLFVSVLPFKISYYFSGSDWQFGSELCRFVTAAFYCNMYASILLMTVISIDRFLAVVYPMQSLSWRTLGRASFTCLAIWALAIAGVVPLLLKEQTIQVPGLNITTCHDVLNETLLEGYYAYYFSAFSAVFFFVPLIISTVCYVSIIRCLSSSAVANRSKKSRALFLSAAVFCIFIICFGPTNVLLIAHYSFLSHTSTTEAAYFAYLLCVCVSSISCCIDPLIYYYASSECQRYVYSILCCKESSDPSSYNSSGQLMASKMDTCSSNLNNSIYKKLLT
The experiment in a line: Receptor binding assay ([3H] high affinity TRAP, platelet membrane). The conditions noted are these: platelet membrane of healthy adult; 25 nM [3H] high affinity TRAP; 37° C., 1 hour; read-out: RBA IC50. Here is the method: Blood was sampled from a healthy adult who had taken no drugs for one week, and 3.8% citric acid (a ratio of 1:9 with respect to the blood) was added as an anticoagulant. The mixture was then centrifuged at 100 g for 10 minutes at room temperature to yield platelet rich plasma (PRP). The platelet precipitate obtained by centrifuging the PRP was homogenized with a Dounce homogenizer, and then centrifuged at 40,000 g for 60 minutes to yield platelet membrane. The platelet membrane was suspended in a solution prepared by adding DMSO (dimethyl sulfoxide) at 1% concentration to Buffer 1: a 50 mM Tris-HCl buffer containing 10 mM MgCl2 and 1 mM EGTA (ethylene glycol tetraacetic acid), and the suspension was stored at −80° C. Bovine albumin and DMSO were added to Buffer 1 at 0.1% and 20%, respectively, to make preparation solutions for the test compound. The test compounds (20 μl) diluted at various concentrations with the preparation solutions were added to a 96-well multiscreen plate. […] After then adding 100 μl of the previously prepared platelet membrane suspension (0.4 mg/ml) and mixing, incubation was performed at 37° C. for 1 hour. The reaction mixture was suction filtered and then rinsed 3 times with 200 μl of Buffer 1. Next, 30 μl of liquid scintillator was added for measurement of the radioactivity of the plate using a Top Counter (Packard), the value of the radioactivity in the presence of the test compound minus non-specific binding portion was divided by the specific binding value (the value of the binding in the absence of the compound minus the non-specific binding portion) to determine the binding ratio, from which the IC50 value was calculated. The non-specific binding was the value obtained with addition of 10 μM of high affinity TRAP.

Assay [2] deals with platelet rich plasma (PRP), thrombin-induced platelet aggregation. The assay can be described thus: Inhibitory effects on platelet aggregation using platelet rich plasma. It is filed as cell-based. The conditions noted are these: Homo sapiens, 0.1 h, PRP of healthy adult, aggregation initiated with thrombin (0.5–1.5 units/ml), area under aggregation curve, 6 minutes, read-out: Thr IC50. Here is the method:
[Inhibitory Effects on Platelet Aggregation Using Platelet Rich Plasma]
Blood was sampled from a healthy adult who had taken no drugs for one week, and 3.8% citric acid (a ratio of 1:9 with respect to the blood) was added as an anticoagulant. The mixture was then centrifuged at 100 g for 10 minutes at room temperature to yield platelet rich plasma (PRP). The PRP-removed blood was further centrifuged at 1000 g for 10 minutes to yield platelet poor plasma (PPP). The number of platelet was counted using a multi-parameter automatic hemocyte counter (K4500, Sysmex), and the PRP was diluted to approximately 300,000/μl with the PPP. The platelet aggregation activity was determined in the following manner using an Aggregometer (MC Medical). GPRP-NH2 (final concentration 1 mM, 25 μl) was added as a fibrin polymerization inhibitor to the PRP (175 μl), after which Ca-free Tyrode solution (control) or the test compound suspension (25 μl) at different concentrations was added, incubation was performed at 37° C. for 3 minutes and then 25 μl of thrombin at the minimum concentration required to produce maximum aggregation (final concentration: optimum concentration among 0.5–1.5 units/ml) was added, for initiation of platelet aggregation. PRP and Ca-free Tyrode solution (control) or the preparation solutions at various concentrations were pre-incubated at 37° C. for 60 minutes, prior to the platelet aggregation reaction in some experiments. After addition of thrombin, the aggregation reaction was examined for 6 minutes and the areas under the aggregation curves were compared to determine the inhibition ratio, from which the IC50 value was calculated.

Structures can show the parent of a compound that is named as a salt.

The IC50 is the point on the concentration scale where inhibition reaches its midpoint. In the case of `CCOc1cc2c(c(F)c1OCC)C(=N)N(CC(=O)c1cc3c(c(C(C)(C)C)c1)OCCN3CC#N)C2` [Example 5, {8-tert-Butyl-6-[2-(5,6-diethoxy-7-fluoro-1-imino-1,3-dihydro-isoindol-2-yl)acetyl]-2,3-dihydrobenzo[1,4]oxazin-4-yl}acetonitrile hydrobromide], the IC50 was 6.1 nM in assay [1], 17 nM on thrombin receptor and 290 nM in assay [2].

For the compound `CCOc1cc2c(c(F)c1OCC)C(=N)N(CC(=O)c1cc(N(C)C)c(OC)c(C(C)(C)C)c1)C2` [Example 6, 1-(3-tert-Butyl-5-dimethylamino-4-methoxy-phenyl)-2-(5,6-diethoxy-7-fluoro-1-imino-1,3-dihydro-isoindol-2-yl)-ethanone hydrobromide], the values for the IC50 (in assay [1]; on thrombin receptor; in assay [2]) were 19 nM, 24 nM and 72 nM, respectively.

As to `CCOc1cc2c(c(F)c1OCC)C(=N)N(CC(=O)c1cc(N3CCOCC3)c(OC)c(C(C)(C)C)c1)C2` [Example 7], the values for the IC50 (in assay [1]; on thrombin receptor; in assay [2]) were 32 nM, 26 nM and 41 nM, respectively.

As for `CCOc1cc2c(c(F)c1OCC)C(=N)N(CC(=O)c1cc(N3CCC(O)CC3)c(OC)c(C(C)(C)C)c1)C2` [Example 8, 1-[3-tert-Butyl-5-(4-hydroxy-piperidin-1-yl)-4-methoxyphenyl]-2-(5,6-diethoxy-7-fluoro-1-imino-1,3-dihydro-isoindol-2-yl)-ethanone hydrobromide], the results for the IC50 (in assay [1]; on thrombin receptor; in assay [2]) were 23 nM, 29 nM and 84 nM, respectively.

`CCOc1cc2c(c(F)c1OCC)C(=N)N(CC(=O)c1cc(NCC#N)c(OC)c(C(C)(C)C)c1)C2` [Example 10, (3-tert-Butyl-5-[2-(5,6-diethoxy-7-fluoro-1-imino-1,3-dihydro-isoindol-2-yl)-acetyl]-2-methoxy-phenylamino}-acetonitrile hydrobromide]: the 50% inhibitory concentration (IC50) in assay [1] came out at 34 nM; on thrombin receptor, 26 nM; in assay [2], 24 nM.

Consider `CCOc1cc2c(c(F)c1OCC)C(=N)N(CC(=O)c1cc(N3CCN(CC#N)CC3)c(OC)c(C(C)(C)C)c1)C2` [Example 11, (4-{3-tert-Butyl-5-[2-(5,6-diethoxy-7-fluoro-1-imino-1,3-dihydro-isoindol-2-yl)-acetyl]-2-methoxy-phenyl}piperazin-1-yl)-acetonitrile hydrobromide], for which the IC50 in assay [1] was 75 nM; on thrombin receptor it was 45 nM; in assay [2] it was 57 nM.

As to `CCOc1cc2c(c(F)c1OCC)C(=N)N(CC(=O)c1cc(N3C[C@@H](O)[C@H](OC)C3)c(OC)c(C(C)(C)C)c1)C2` [Example 12, 1-[3-tert-Butyl-5-((3R,4R)-3-hydroxy-4-methoxy-pyrrolidin-1-yl)-4-methoxy-phenyl]-2-(5,6-diethoxy-7-fluoro-1-imino-1,3-dihydro-isoindol-2-yl)-ethanone trifluoroacetate], the figures for the IC50 (in assay [1]; on thrombin receptor; in assay [2]) were 21 nM, 45 nM and 41 nM, respectively.

As to `CCOc1cc2c(c(F)c1OCC)C(=N)N(CC(=O)c1cc(N3CCN(C(C)=O)CC3)c(OC)c(C(C)(C)C)c1)C2` [Example 13, 1-[3-(4-Acetyl-piperazin-1-yl)-5-tert-butyl-4-methoxy-phenyl]-2-(5,6-diethoxy-7-fluoro-1-imino-1,3-dihydro-isoindol-2-yl)ethanone hydrobromide], the IC50 in assay [1] turned out to be 120 nM; at thrombin receptor, 46 nM; in assay [2], 45 nM.

For `CCOc1cc2c(c(F)c1OCC)C(=N)N(CC(=O)c1cc(N3C[C@H](OCC)[C@@H](O)C3)c(OC)c(C(C)(C)C)c1)C2` [Example 17, 1-[3-tert-Butyl-5-((3S,4S)-3-ethoxy-4-hydroxy-pyrrolidin-1-yl)-4-methoxy-phenyl]-2-(5,6-diethoxy-7-fluoro-1-imino-1,3-dihydro-isoindol-2-yl)ethanone trifluoroacetate], the IC50 came to 32 nM on thrombin receptor and 80 nM in assay [2].
